{"source": "paper PMC5871718", "about": "(Cell, 2018)", "key": {"NUDT1": {"target": "T1, NUDT1 (Homo sapiens, UniProt P36639)", "T1 construct": "endogenous protein in THP-1 cells, identified by mass spectrometry", "assay": "2D thermal proteome profiling (TMT mass spectrometry)", "type": "cell-based", "conditions": "intact THP-1 cells, […] min, […] °C; stabilization"}, "BRD3": {"target": "T2, BRD3 (Homo sapiens, UniProt Q15059)", "T2 construct": "endogenous full-length protein in THP-1 cells or lysate, identified by mass spectrometry", "T2 sequence (Q15059 2-726)": "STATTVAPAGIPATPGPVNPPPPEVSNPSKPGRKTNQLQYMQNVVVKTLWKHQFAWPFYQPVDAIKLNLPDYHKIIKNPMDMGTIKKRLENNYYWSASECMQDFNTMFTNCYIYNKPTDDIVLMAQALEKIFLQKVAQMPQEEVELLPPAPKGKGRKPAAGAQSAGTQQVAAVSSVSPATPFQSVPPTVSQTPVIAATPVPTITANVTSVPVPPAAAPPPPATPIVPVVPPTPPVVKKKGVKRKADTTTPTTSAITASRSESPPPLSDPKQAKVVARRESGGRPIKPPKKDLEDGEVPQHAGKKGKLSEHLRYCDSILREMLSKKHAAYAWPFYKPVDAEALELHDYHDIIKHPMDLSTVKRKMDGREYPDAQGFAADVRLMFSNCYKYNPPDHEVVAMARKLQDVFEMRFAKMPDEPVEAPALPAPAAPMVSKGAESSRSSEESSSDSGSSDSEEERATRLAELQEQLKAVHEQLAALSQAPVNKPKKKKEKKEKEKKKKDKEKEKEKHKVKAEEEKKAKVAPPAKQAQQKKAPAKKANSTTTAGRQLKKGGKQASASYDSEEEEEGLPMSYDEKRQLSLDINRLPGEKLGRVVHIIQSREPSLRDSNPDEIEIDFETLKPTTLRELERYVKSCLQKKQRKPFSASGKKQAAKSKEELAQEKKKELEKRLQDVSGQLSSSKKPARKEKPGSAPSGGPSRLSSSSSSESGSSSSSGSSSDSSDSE", "assay": "2D thermal proteome profiling (TMT mass spectrometry)", "type": "cell-based", "conditions": "intact THP-1 cells, […] min, […] °C; stabilization"}, "FYTTD1 [1]": {"target": "T3, FYTTD1 (Homo sapiens, UniProt Q96QD9)", "T3 sequence (Q96QD9 1-318)": "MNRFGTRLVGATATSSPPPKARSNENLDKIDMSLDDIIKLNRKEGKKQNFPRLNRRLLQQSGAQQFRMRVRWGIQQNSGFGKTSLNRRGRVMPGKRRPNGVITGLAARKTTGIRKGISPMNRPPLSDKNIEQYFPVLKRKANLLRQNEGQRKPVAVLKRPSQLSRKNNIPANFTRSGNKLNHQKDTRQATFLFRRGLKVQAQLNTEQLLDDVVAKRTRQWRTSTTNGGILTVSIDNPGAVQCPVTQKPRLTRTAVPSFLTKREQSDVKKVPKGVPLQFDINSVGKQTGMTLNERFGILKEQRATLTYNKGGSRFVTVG", "assay": "2D thermal proteome profiling (TMT mass spectrometry)", "type": "cell-based", "design": "endogenous protein in THP-1 cells, identified by mass spectrometry", "conditions": "intact THP-1 cells, […] min, […] °C; destabilization; text value approximate", "source_text": "2D thermal proteome profiling (TMT mass spectrometry) on FYTTD1 | JQ1 further caused dose-dependent destabilization of FYTTD1"}, "FYTTD1 [2]": {"target": "T3, FYTTD1", "assay": "thermal shift of spiked recombinant protein, mass spectrometry read-out", "type": "binding", "design": "commercial recombinant protein (Abcam ab164533)", "conditions": "[…] JQ1, […] protein in background of recombinant protein domains, […] HEPES pH […] NaCl, […] glycerol, […] Tween20; destabilization"}, "SOAT1": {"target": "T4, SOAT1 (Homo sapiens, UniProt P35610)", "T4 construct": "endogenous full-length protein in THP-1 cells, identified by mass spectrometry", "T4 sequence (P35610 1-550)": "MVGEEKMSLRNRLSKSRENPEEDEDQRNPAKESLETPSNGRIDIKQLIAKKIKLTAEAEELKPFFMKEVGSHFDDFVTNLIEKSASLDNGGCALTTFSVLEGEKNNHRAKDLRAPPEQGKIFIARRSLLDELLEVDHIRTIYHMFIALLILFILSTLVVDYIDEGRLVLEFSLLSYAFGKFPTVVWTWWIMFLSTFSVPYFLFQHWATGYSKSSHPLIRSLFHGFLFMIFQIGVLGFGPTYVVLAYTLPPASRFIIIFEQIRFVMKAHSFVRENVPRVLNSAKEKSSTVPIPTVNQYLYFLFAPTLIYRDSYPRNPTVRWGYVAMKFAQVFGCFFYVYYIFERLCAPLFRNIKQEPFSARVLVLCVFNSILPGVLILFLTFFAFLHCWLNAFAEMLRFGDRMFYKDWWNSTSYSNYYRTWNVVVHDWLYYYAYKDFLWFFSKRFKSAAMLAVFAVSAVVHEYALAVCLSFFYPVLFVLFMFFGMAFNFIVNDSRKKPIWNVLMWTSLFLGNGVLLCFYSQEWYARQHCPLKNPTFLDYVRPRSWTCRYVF", "assay": "2D thermal proteome profiling (TMT mass spectrometry)", "type": "cell-based", "conditions": "intact THP-1 cells, […] min, […] °C; stabilization; text value approximate", "source_text": "2D thermal proteome profiling (TMT mass spectrometry) on SOAT1 | stabilized SOAT1 and several members of the sterol biosynthesis pathway"}}, "data": [{"smiles": "COc1cc2c(cc1-c1c(C)noc1C)ncc1[nH]c(=O)n([C@H](C)c3ccccn3)c12", "note": "[I-BET151, 7-(3,5-dimethylisoxazol-4-yl)-8-methoxy-1-((R)-1-(pyridin-2-yl)ethyl)-1H-imidazo[4,5-c]quinolin-2(3H)-one]", "values": [{"measurement": "pEC50", "setting": "NUDT1", "value": 5.3}, {"measurement": "pEC50", "setting": "BRD3", "value": 5.9}]}, {"smiles": "Cc1sc2c(c1C)C(c1ccc(Cl)cc1)=N[C@@H](CC(=O)OC(C)(C)C)c1nnc(C)n1-2", "note": "[JQ1]", "values": [{"measurement": "EC50", "setting": "FYTTD1 [1]", "value": "~1000", "unit": "nM"}, {"measurement": "thermal shift", "setting": "FYTTD1 [2]", "value": "Thermal shift assays with recombinantly expressed FYTTD1 confirmed destabilization by JQ1 binding"}, {"measurement": "EC50", "setting": "SOAT1", "value": "~1000", "unit": "nM"}]}]}
